# Data taken from US20230322805A1, “NOVEL PYRIMIDODIAZEPINE DERIVATIVES OR USES THEREOF” (SPARK BIOPHARMA, INC., priority 2020, published 2023).
# What was measured:
# PDIA3 = target: T1, PDIA3 (Homo sapiens, UniProt P30101); assay: CETSA and pull-down assay with probe SB1624; assay type: binding; design: endogenous in cells; host or cells: HEK293 BiFC-tau cells (TS-FITGE, CETSA, PEG-maleimide assay); SH-SY5Y cells (pull-down with probe SB1624); conditions: CETSA 10 μM in HEK293 BiFC-tau cells; pull-down 5 μM SB1624 with or without 40 μM SB1617 in SH-SY5Y cells
# T1 sequence (P30101 25-505): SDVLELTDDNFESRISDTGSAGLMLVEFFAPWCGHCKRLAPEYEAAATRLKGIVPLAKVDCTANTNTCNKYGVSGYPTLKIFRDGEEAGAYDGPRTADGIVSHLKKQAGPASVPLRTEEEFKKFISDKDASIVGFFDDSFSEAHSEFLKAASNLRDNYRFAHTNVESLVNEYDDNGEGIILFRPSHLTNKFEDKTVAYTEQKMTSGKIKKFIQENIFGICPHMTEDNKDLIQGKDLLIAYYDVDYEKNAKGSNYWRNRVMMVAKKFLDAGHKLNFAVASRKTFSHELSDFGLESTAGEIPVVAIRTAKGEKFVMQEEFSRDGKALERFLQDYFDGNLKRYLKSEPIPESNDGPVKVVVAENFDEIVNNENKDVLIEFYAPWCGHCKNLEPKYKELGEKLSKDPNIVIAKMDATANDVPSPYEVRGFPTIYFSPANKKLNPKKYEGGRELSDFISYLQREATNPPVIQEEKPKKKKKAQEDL
# Experimental: HEK293 BiFC-tau cells were treated with DMSO (0.1%) and a compound according to the present invention (10 μM) in the presence of thapsigargin (200 nM) for 3 hours. The cell suspension was heated at the indicated temperature range for 3 minutes and then at 25° C. for 3 minutes. The heated cells were washed with PBS and resuspended in Lysis Buffer A. For cell lysis, cell suspensions were freeze-thawed in liquid nitrogen three times. The cell lysate was washed by centrifugation at 20000 g, 4° C. for 20 minutes. Equal volumes of washed cell lysate were combined with SDS buffer and subjected to immunoblotting.
# SH-SY5Y cells were seeded in 6-well plates and then treated with 1 μM thapsigargin and 5 μM SB1624 (probe compound) for 2.5 hours with or without 40 μM SB1617. Cells were exposed to 356 nm UV irradiation for 30 min on ice. After washing with cold PBS, cells were lysed in RIPA buffer and removed by centrifugation at […] for 15 minutes at 4° C. The protein concentration of the supernatant was determined by Pierce BCA Protein Assay Kit and the protein concentration was adjusted to 1 mg/mL. […] Proteins were eluted by boiling with 3×SDS sample buffer and analyzed by SDS-PAGE and Western blot. […]
# [1] = system: BiFC-tau Venus HEK293 cells (tau aggregation, hTau441); assay: BiFC-tau Venus HEK293 cell assay monitoring tau aggregation under thapsigargin; assay type: cell-based, human
# Experimental: Phenotype-based screening to monitor tau assembly was performed using BiFC-tau Venus HEK293 cells in a high-throughput manner. Cells were seeded in 384-well plates at a density of 2.8×10^3 cells/well in 40 μL medium for 24 hours. Cells were treated with 80 nM thapsigargin (Sigma-Aldrich) in 10 μL medium and then ˜ 3,000 pDOS library compounds (10 μM), including compounds according to the present invention, using a 0.1 μL pinning tool. For knockdown experiments, cells were transfected with 5 or 10 nM siRNA using Lipofectamine RNAiMAX and incubated for 48 hours before thapsigargin treatment. […] Plates were scanned on an INCell Analyzer 2000 (GE Healthcare) at λex/λem=490/525 nm for Venus fluorescence (for the FITC channel) and λex/λem=350/455 nm for nuclei (for the DAPI channel). Bright-field images were taken to confirm cell morphology, and images were analyzed to quantify Venus intensity per cell using developer software (GE Healthcare).
# 1-1. According to the method described in Examples 1-15 above, the expression of Venus-based bimolecular fluorescence complemented-tau (BiFC-tau) was confirmed using HEK293 human embryonic kidney cells, thereby phenotyping the phenotype-based screening was performed.
# The N-terminal Venus (VN173) and C-terminal Venus (VC155) fragment sequences are fused with the full-length human tau (hTau441) sequence to form the BiFC-tau Venus HEK293 cell system. Soluble tau dimers can be measured by monitoring the turn-on/off signal of Venus fluorescence through co-expression of the two fused vectors, hTau441-VN173 and hTau441-VC1 55.
# As a stimulator of tau aggregation, thapsigargin (TG; an ER stress inducer), a direct inhibitor of sarco/endoplasmic reticulum Ca2^+-ATPase, was used. This disrupts calcium homeostasis. Thapsigargin treatment induces tau dimerization (tau aggregation), which can be confirmed by BiFC-tau Venus fluorescence turn-on.
smiles,measurement,setting,value
CN(Cc1ccc(Cl)cc1)c1ncnc2c1[C@@H]1OC[C@H](CN2)N1S(=O)(=O)c1ccc([N+](=O)[O-])cc1 [Compound 117],"specific binding (CETSA, pull-down)",PDIA3,specifically binds
same,BiFC-Venus fluorescence induced by thapsigargin (FITC channel image),"[1]; 10 μM SB1617 with 80 nM thapsigargin, 24 hours",suppresses BiFC-Venus fluorescence
same,IC50,"[1]; Homo sapiens, HEK293, inhibition of BiFC-tau Venus fluorescence, 80 nM thapsigargin, table head prints no unit, μM, read-out: BiFC-tau intensity (IC50)",1.9 µM
same,activity at 10 µM,"[1]; Homo sapiens, HEK293-BiFC-tau-Venus cells co-treated with 10 μM compound and 80 nM thapsigargin for 24 hours, read-out: BiFC-tau intensity (%)",36%
same,change in Venus fluorescence intensity,[1]; various concentrations with 80 nM TG for 20 hours,dose dependent
